In article PMC3025356, “Mechanism of the Ca^2+-Dependent Interaction between S100A4 and Tail Fragments of Nonmuscle Myosin Heavy Chain IIA” (Journal of Molecular Biology, 2011):

Columns and labels:
S100A4 [1] = target: T1, S100A4 (Homo sapiens, UniProt P26447); test: Quin-2 fluorescence, Ca^2+ dissociation from S100A4 in the presence of target peptides; format: binding; settings: 50 μM peptide premixed with 10 μM S100A4; 100 mM NaCl, 10 mM Hepes, 100 μM Ca^2+, pH 7.5, 20 °C
T1 construct: We used full-length S100A4 for this analysis; made in house; host or cells: Escherichia coli BL21(DE3)
Experimental: Ca^2+ dissociation measurements for wild-type S100A4, using Quin-2 as described above, were repeated as a control for the effect of target peptides on this process. On mixing 10 μM S100A4 in the presence of Ca^2+ with 100 μM Quin-2, the observed profile was fitted to a single exponential with kobs = 17 s^− 1 (Fig. 5a; cf. k− 1 in Scheme 1).
Fig. 5 Dissociation of Ca^2+ from S100A4 in the absence and in the presence of target peptides monitored using Quin-2 fluorescence. (a) Mixed with 100 μM Quin-2 was 10 μM S100A4 + 50 μM Ca^2+ (stopped-flow reaction chamber concentrations). A superposed fit to a single exponential yields kobs = 17 s^− 1. […] (d) As in (a), but with 2.5 μM M200 premixed with 5 μM S100A4. A biphasic exponential fit yielded rate constants of 13 s^− 1 (A = 26%) and 0.30 s^− 1 (A = 74%). […] Experiments were carried out in either 20 mM NaCl, 20 mM Tris, 1 mM DTT, and 100 μM Ca^2+ at pH 7.5 and 20 °C (a and b; cf. Malashkevich et al.[17]), or 100 mM NaCl, 10 mM Hepes, and 100 μM Ca^2+ at pH 7.5 and 20 °C (c and d). […] Rate constants were unaffected by the inclusion of 1 mM Mg^2+.
Stopped-flow measurements were carried out using an SX18-MV apparatus (Applied Photophysics Ltd., Leatherhead, UK) with a dead time of 1.5 ms.[40] Records were generally captured on a logarithmic time base. Absorption (turbidity) measurements were usually recorded using a 10-mm pathlength, while fluorescence was recorded with a 2-mm pathlength for excitation and emission. The stated concentrations of components refer to the reaction chamber after mixing, unless otherwise indicated. Tyrosine fluorescence was excited at 280 nm, and the emission was collected through a UG11 bandpass filter plus a 305-nm longpass filter.[18] Fluorescein fluorescence was excited at 480 nm, and the emission was detected through a 515-nm longpass filter. Quin-2 fluorescence was measured by excitation at 336 nm, and emission was collected with a 455-nm longpass filter. For simultaneous recording of light scatter, a second channel was monitored through a UG11 filter. […]

S100A4 [2] = target: T1, S100A4; test: Competition with F-M16^N binding to S100A4 (fluorescence anisotropy); settings: read-out: Kd (K2) by competition
Experimental: Titration (circles) was carried out in 20 mM NaCl, 10 mM Hepes, 1 mM Mg^2+, and 100 μM Ca^2+ at pH 7.5 and 20 °C. […] (squares).
Fluorescence spectra and anisotropy measurements were recorded using an SLM 8000 spectrofluorimeter (SLM, Urbana, IL). Fluorescein anisotropy measurements were carried out in L-format using a 515-nm emission filter. The four combinations of vertical and horizontal polarisers (vv, vh, hh, and hv) were each recorded for 30 s, and then the initial setting (vv) was re-read to check for signal stability. Calculations of the total fluorescence (Ivv + 2Ivh) and anisotropy (Ivv − Ivh/(Ivv + 2Ivh)), corrected for the g factor (hh/hv), were performed using an Excel spreadsheet. […] Note that the small correction for the emission intensity weighting to the observed anisotropy was not applied to these competitive titrations as the error will tend to cancel.

S100A4 [3] = target: T1, S100A4; test: Competition of M32/M16^N with M200 for S100A4 (turbidity); format: biochemical; settings: 250 μM peptide, 5 μM M200, 10 μM S100A4, Ca^2+
Experimental: Fig. 9 Dissociation of M200 filaments by S100A4. (a) Initially, M200 was added (i) from a concentrated stock in 0.5 M NaCl to give a final concentration of 5 μM M200 (with respect to the polypeptide chain) in 100 mM NaCl, 10 mM Hepes, and 0.1 mM Ca^2+ at pH 7.5 and 20 °C. A biphasic rise in turbidity was recorded for 200 s (continuous line). Then 10 μM S100A4 (with respect to monomer concentration) was added (ii), followed by 0.2 mM EGTA (iii) and 1 mM Ca^2+ (iv). […] (b) M200 was diluted (i) into 100 mM NaCl to form filaments as in (a), then 5 μM S100A4 was added (ii), causing a 54% drop in turbidity. A further 5 μM S100A4 (iii) caused turbidity to fall to almost zero. (c) Stopped-flow records monitoring the dissociation of 5 μM M200 filaments on jumping [NaCl] from 100 mM to 120 mM NaCl. Other components of the buffer were 20 mM Hepes, 1 mM Mg^2+, and 100 μM Ca^2+ at pH 7.5 and 20 °C. […] In the presence of 20 μM S100A4 (lower trace), the turbidity decreased by 87% with a rate constant of 0.2 s^− 1.
Further information on Scheme 2 was obtained from competition assays. […] An independent estimate of K5 based on the Ca^2+ dependence of the turbidity assay yielded a value of 0.003 μM (see Supplementary Data).
The decrease in fluorescence, […]
that F-M16N binding was slightly faster. […]
A second estimate was calculated from the apparent Ca2+ binding constant observed in the turbidity assay […]

S100A4 [4] = target: T1, S100A4; settings: peptide residues 1908–1923; cited from earlier work
Excerpt: Our kinetic studies are also used to redefine the minimal binding fragment of the NM-MHC IIA tail (Fig. 1). Using a series of overlapping fragments and a blot overlay assay, Kriajevska et al. previously mapped the S100A4 binding site of nonmuscle myosin IIA to a 29-amino-acid region near the C-terminus (residues 1908–1936 in the current numbering system).[9]

T1 sequence (P26447 whole entry): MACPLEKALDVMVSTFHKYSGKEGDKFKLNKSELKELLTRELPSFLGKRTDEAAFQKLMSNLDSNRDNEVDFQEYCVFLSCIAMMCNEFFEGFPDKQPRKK

kobs, Ca^2+ dissociation with peptide (S100A4 [1]): 16 s^− 1 | Kd (S100A4 [2]): ≥ 100 µM | inhibition of turbidity change amplitude (S100A4 [3]): no effect
Compound: CSCC[C@H](NC(=O)[C@H](C)NC(=O)[C@H](CC(=O)O)NC(C)=O)C(=O)N[C@@H](CC(N)=O)C(=O)N[C@@H](CCCNC(=N)N)C(=O)N[C@@H](CCC(=O)O)C(=O)N[C@H](C(=O)N[C@@H](CO)C(=O)N[C@@H](CO)C(=O)N[C@@H](CC(C)C)C(=O)N[C@@H](CCCCN)C(=O)N[C@@H](CC(N)=O)C(=O)N[C@@H](CCCCN)C(=O)N[C@@H](CC(C)C)C(=O)N[C@@H](CCCNC(=N)N)C(=O)N[C@@H](CCCNC(=N)N)C(N)=O)C(C)C [M16^N]
difference in binding constant vs longer fragments (1851–1960, 1893–1923) (S100A4 [4]): ~2 -fold
